# From US8629102B2, “3-hydroxyisothiazole 1-oxide derivatives” (Mochida Pharmaceutical Co., Ltd., priority 2011, dated 2014)
# Molecular target: T1, GPR40 of human origin (Homo sapiens, UniProt O14842)
# T1 construct: expressed in transfected cells
# Assay: Agonist action on GPR40 of human origin (intracellular Ca2+ change)
# Assay type: cell-based
# Conditions: CHO cell strain stably expressing GPR40 of human origin; change in Ca2+ concentration, fluorescent calcium indicator
# Procedure: Pharmacological Test Example 1: Agonist Action on GPR40 of Human Origin
# A CHO cell strain stably expressing GPR40 of human origin was used to determine the agonist action of a subject compound. This cell strain was seeded in a clear bottom 96 well plate at 4×10^4 cells/100 pt/well. The cell strain iswas cultured in a CO2 incubator overnight using a Ham's F-12 medium containing a 10% fetal bovine serum, 100 U/mL penicillin, 0.1 mg/mL streptomycin, and 400 μg/mL Geneticin. Calcium 4 Assay Kit (Molecular Devices) was used as a fluorescent calcium indicator. One mL of 77 mg/mL probenecid (Invitrogen) was added to 100 mL of a calcium indicator solution to prepare a solution (loading solution) mixed with a 20 mM HEPES-containing Hanks' balanced salt solution (HBSS) in equal proportions. To the cells from which the culture solution is removed, 200 μl of the loading solution was added, and the cells were cultured in a CO2 incubator for 1 hour. The subject compound was diluted with a 20 mM HEPES-containing HBSS and was added to the cells by 50 μL, and the change in the Ca^2+ concentration was measured with an intracellular ion analyzer. The EC50 value of the subject compound was calculated using the dose-response curve of fluorescence intensity variation.
# T1 sequence (O14842 whole entry): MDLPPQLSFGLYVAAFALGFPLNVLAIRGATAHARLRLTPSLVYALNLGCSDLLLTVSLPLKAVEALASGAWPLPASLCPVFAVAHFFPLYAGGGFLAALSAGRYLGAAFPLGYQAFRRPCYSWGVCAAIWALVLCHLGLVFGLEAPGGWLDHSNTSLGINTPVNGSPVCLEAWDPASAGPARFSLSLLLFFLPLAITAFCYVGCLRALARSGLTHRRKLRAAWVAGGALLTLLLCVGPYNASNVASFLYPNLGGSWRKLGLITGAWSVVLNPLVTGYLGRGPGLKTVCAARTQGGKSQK
row,SMILES,EC50 [µM]
1,"CCOc1cc(Cl)ccc1-c1cccc2c1CC[C@H]2Oc1ccc(-c2cc(O)n[s+]2[O-])cc1 (stereo partly drawn) [Example 18, 5-(4-(((R)-4-(4-chloro-2-ethoxyphenyl)-2,3-dihydro-1H-inden-1-yl)oxy)phenyl)-3-hydroxyisothiazole 1-oxide]",0.3 to 3
2,"Cc1cc(OCCC(C)(C)O)cc(C)c1-c1cccc2c1OCC2Oc1ccc(-c2cc(O)n[s+]2[O-])cc1 (single isomer, unassigned) [Example 148-a, 3-hydroxy-5-(4-((7-(4-(3-hydroxy-3-methylbutoxy)-2,6-dimethylphenyl)-2,3-dihydrobenzofuran-3-yl)oxy)phenyl)isothiazole 1-oxide]",< 0.3
3,"Cc1ccccc1-c1cccc2c1CC[C@H]2Oc1ccc(-c2cc(O)n[s+]2[O-])cc1 (stereo partly drawn) [Example 27, 5-(4-(((R)-4-(2-methylphenyl)-2,3-dihydro-1H-inden-1-yl)oxy)phenyl)-3-hydroxyisothiazole 1-oxide]",< 0.3
4,"Cc1cccc(C)c1Oc1cccc2c1CC[C@H]2Oc1ccc(-c2cc(O)n[s+]2[O-])cc1 (stereo partly drawn) [Example 96, 5-(4-(((R)-4-(2,6-dimethylphenoxy)-2,3-dihydro-1H-inden-1-yl)oxy)phenyl)-3-hydroxyisothiazole 1-oxide]",< 0.3
5,"[O-][s+]1nc(O)cc1-c1ccc(O[C@@H]2CCc3c(-c4ccc(Cl)cc4)cccc32)cc1 (stereo partly drawn) [Example 6, 5-(4-(((R)-4-(4-chlorophenyl)-2,3-dihydro-1H-inden-1-yl)oxy)phenyl)-3-hydroxyisothiazole 1-oxide]",0.3 to 3
6,"[O-][s+]1nc(O)cc1-c1ccc(OC2COc3c(Br)cccc32)cc1 (single isomer, unassigned) [Example 150, 5-(4-((7-bromo-2,3-dihydrobenzofuran-3-yl)oxy)phenyl)-3-hydroxyisothiazole 1-oxide]",< 0.3
7,"COc1ccc(Cl)cc1-c1cccc2c1CC[C@H]2Oc1ccc(-c2cc(O)n[s+]2[O-])cc1 (stereo partly drawn) [Example 55, 5-(4-(((R)-4-(5-chloro-2-methoxyphenyl)-2,3-dihydro-1H-inden-1-yl)oxy)phenyl)-3-hydroxyisothiazole 1-oxide]",0.3 to 3
8,"[O-][s+]1nc(O)cc1-c1ccc(OCCc2ccccc2Oc2ccccc2)cc1 (centres unmarked) [Example 161, 3-hydroxy-5-(4-(2-phenoxyphenethoxy)phenyl)isothiazole 1-oxide]",< 0.3
9,"COc1cccnc1Oc1cccc2c1CC[C@H]2Oc1ccc(-c2cc(O)n[s+]2[O-])cc1 (stereo partly drawn) [Example 132, 3-hydroxy-5-(4-(((R)-4-((3-methoxypyridin-2-yl)oxy)-2,3-dihydro-1H-inden-1-yl)oxy)phenyl)isothiazole 1-oxide]",0.3 to 3
10,"Cc1cccc(C)c1N1CCC(COc2ccc(-c3cc(O)n[s+]3[O-])cc2)C1 (centres unmarked) [Example 121, 5-(4-((1-(2,6-dimethylphenyl)pyrrolidin-3-yl)methoxy)phenyl)-3-hydroxyisothiazole 1-oxide]",0.3 to 3
11,"[O-][s+]1nc(O)cc1-c1ccc(O[C@@H]2CCc3c(-c4ccccc4C(F)(F)F)cccc32)cc1 (stereo partly drawn) [Example 64, 5-(4-(((R)-4-(2-trifluoromethylphenyl)-2,3-dihydro-1H-inden-1-yl)oxy)phenyl)-3-hydroxyisothiazole 1-oxide]",< 0.3
12,"CC(C)(O)CCOc1ccc(Oc2cccc3c2CC[C@H]3Oc2ccc(-c3cc(O)n[s+]3[O-])cc2)cc1 (stereo partly drawn) [Example 113, 3-hydroxy-5-(4-(((R)-4-(4-(3-hydroxy-3-methylbutoxy)phenoxy)-2,3-dihydro-1H-inden-1-yl)oxy)phenyl)isothiazole 1-oxide]",< 0.3
13,"[O-][s+]1nc(O)cc1-c1ccc(OC2COc3c(Oc4ccccc4)cccc32)cc1 (single isomer, unassigned) [Example 145-b, 3-hydroxy-5-(4-((7-phenoxy-2,3-dihydrobenzofuran-3-yl)oxy)phenyl)isothiazole 1-oxide]",0.3 to 3
14,"[O-][s+]1nc(O)cc1-c1ccc(O[C@@H]2CCc3c(Oc4cccnc4)cccc32)cc1 (single isomer, unassigned) [Example 85]",< 0.3
15,"CC(C)c1ccc(-c2cccc3c2CC[C@H]3Oc2ccc(-c3cc(O)n[s+]3[O-])cc2)c(Cl)n1 (stereo partly drawn) [Example 76, 5-(4-(((R)-4-(6-isopropyl-2-chloropyridin-3-yl)-2,3-dihydro-1H-inden-1-yl)oxy)phenyl)-3-hydroxyisothiazole 1-oxide]",< 0.3
16,"COc1ccc(-c2cccc3c2CC[C@H]3Oc2ccc(-c3cc(O)n[s+]3[O-])cc2)cc1 (stereo partly drawn) [Example 23, 5-(4-(((R)-4-(4-methoxyphenyl)-2,3-dihydro-1H-inden-1-yl)oxy)phenyl)-3-hydroxyisothiazole 1-oxide]",< 0.3
17,"NC(=O)c1cccc(Oc2cccc3c2CC[C@H]3Oc2ccc(-c3cc(O)n[s+]3[O-])cc2)c1 (stereo partly drawn) [Example 128, 3-(((1R)-1-(4-(3-hydroxy-1-oxidoisothiazol-5-yl)phenoxy)-2,3-dihydro-1H-inden-4-yl)oxy)benzamide]",< 0.3
18,"[O-][s+]1nc(O)cc1-c1ccc(O[C@@H]2CCc3c(-c4cccc(F)c4F)cccc32)cc1 (stereo partly drawn) [Example 17, 5-(4-(((R)-4-(2,3-difluorophenyl)-2,3-dihydro-1H-inden-1-yl)oxy)phenyl)-3-hydroxyisothiazole 1-oxide]",< 0.3
19,"COc1cccc(-c2cccc3c2CC[C@H]3Oc2ccc(-c3cc(O)n[s+]3[O-])cc2)c1F (stereo partly drawn) [Example 59, 5-(4-(((R)-4-(2-fluoro-3-methoxyphenyl)-2,3-dihydro-1H-inden-1-yl)oxy)phenyl)-3-hydroxyisothiazole 1-oxide]",< 0.3
20,"CCOc1ncccc1-c1cccc2c1CC[C@H]2Oc1ccc(-c2cc(O)n[s+]2[O-])cc1 (stereo partly drawn) [Example 19, 5-(4-(((R)-4-(2-ethoxypyridin-3-yl)-2,3-dihydro-1H-inden-1-yl)oxy)phenyl)-3-hydroxyisothiazole 1-oxide]",< 0.3
21,"N#Cc1ccc(Oc2cccc3c2CC[C@H]3Oc2ccc(-c3cc(O)n[s+]3[O-])cc2)cn1 (stereo partly drawn) [Example 119, 5-(((1R)-1-(4-(3-hydroxy-1-oxidoisothiazol-5-yl)phenoxy)-2,3-dihydro-1H-inden-4-yl)oxy)picolinonitrile]",< 0.3

# Other lines, results leading:
row,EC50 [µM],SMILES
1,< 0.3,"[O-][s+]1nc(O)cc1-c1ccc(O[C@@H]2CCc3c(Oc4ccccc4)cccc32)cc1 (stereo partly drawn) [Example 90, 3-hydroxy-5-(4-(((R)-4-phenoxy-2,3-dihydro-1H-inden-1-yl)oxy)phenyl)isothiazole 1-oxide]"
2,< 0.3,"Cc1cc(F)ccc1-c1cccc2c1CC[C@H]2Oc1ccc(-c2cc(O)n[s+]2[O-])cc1 (stereo partly drawn) [Example 39, 5-(4-(((R)-4-(4-fluoro-2-methylphenyl)-2,3-dihydro-1H-inden-1-yl)oxy)phenyl)-3-hydroxyisothiazole 1-oxide]"
3,< 0.3,"[O-][s+]1nc(O)cc1-c1ccc(O[C@@H]2CCc3c(Oc4ccc(N5CCOCC5)nc4)cccc32)cc1 (stereo partly drawn) [Example 109, 3-hydroxy-5-(4-(((R)-4-((6-morpholinopyridin-3-yl)oxy)-2,3-dihydro-1H-inden-1-yl)oxy)phenyl)isothiazole 1-oxide]"
4,< 0.3,"COc1ccc(Oc2cccc3c2OCC3Oc2ccc(-c3cc(O)n[s+]3[O-])cc2)cn1 (single isomer, unassigned) [Example 152-a, 3-hydroxy-5-(4-((7-((6-methoxypyridin-3-yl)oxy)-2,3-dihydrobenzofuran-3-yl)oxy)phenyl)isothiazole 1-oxide]"
5,< 0.3,"CN(C)C(=O)c1ccc(Oc2cccc3c2CC[C@H]3Oc2ccc(-c3cc(O)n[s+]3[O-])cc2)cc1 (stereo partly drawn) [Example 137, 4-(((R)-1-(4-(3-hydroxy-1-oxidoisothiazol-5-yl)phenoxy)-2,3-dihydro-1H-inden-4-yl)oxy)-N,N-dimethylbenzamide]"
6,< 0.3,"Cc1ccc(Oc2cccc3c2CC[C@H]3Oc2ccc(-c3cc(O)n[s+]3[O-])cc2)nc1 (stereo partly drawn) [Example 134, 3-hydroxy-5-(4-(((R)-4-((5-methylpyridin-2-yl)oxy)-2,3-dihydro-1H-inden-1-yl)oxy)phenyl)isothiazole 1-oxide]"
7,< 0.3,"COc1cc(Oc2cccc3c2CC[C@H]3Oc2ccc(-c3cc(O)n[s+]3[O-])cc2)ccn1 (stereo partly drawn) [Example 114, 3-hydroxy-5-(4-(((R)-4-((2-methoxypyridin-4-yl)oxy)-2,3-dihydro-1H-inden-1-yl)oxy)phenyl)isothiazole 1-oxide]"
8,< 0.3,"COc1ccc(Cl)c(-c2cccc3c2CC[C@H]3Oc2ccc(-c3cc(O)n[s+]3[O-])cc2)c1 (stereo partly drawn) [Example 52, 5-(4-(((R)-4-(2-chloro-5-methoxyphenyl)-2,3-dihydro-1H-inden-1-yl)oxy)phenyl)-3-hydroxyisothiazole 1-oxide]"
9,< 0.3,"[O-][s+]1nc(O)cc1-c1ccc(O[C@@H]2CCc3c(-c4ccc(F)cc4)cccc32)cc1 (stereo partly drawn) [Example 21, 5-(4-(((R)-4-(4-fluorophenyl)-2,3-dihydro-1H-inden-1-yl)oxy)phenyl)-3-hydroxyisothiazole 1-oxide]"
10,< 0.3,"COc1ccc(Oc2cccc3c2CC[C@H]3Oc2ccc(-c3cc(O)n[s+]3[O-])cc2)cn1 (stereo partly drawn) [Example 100, 3-hydroxy-5-(4-(((R)-4-((6-methoxypyridin-3-yl)oxy)-2,3-dihydro-1H-inden-1-yl)oxy)phenyl)isothiazole 1-oxide]"
11,< 0.3,"Cc1cc(-c2cccc3c2CC[C@H]3Oc2ccc(-c3cc(O)n[s+]3[O-])cc2)ccc1F (stereo partly drawn) [Example 38, 5-(4-(((R)-4-(4-fluoro-3-methylphenyl)-2,3-dihydro-1H-inden-1-yl)oxy)phenyl)-3-hydroxyisothiazole 1-oxide]"
